According to US10865188B2, “Dibenzo azepine compounds and their use in the treatment of otic diseases and disorders” (Pipeline Therapeutics, Inc., priority 2015, dated 2020):
Read-outs that look alike come from different tables or passages of the source.

Tests used:
Atoh1 = test: Human neural stem cell assay, Atoh1 gene expression (real-time PCR); assay type: cell-based; settings: human neural stem cells, 7 point CRC, read-out: hNSC Atoh1 EC50
Description: (§1) Neural stem cells (NSC) were derived from embryonic stem cells using a published protocol (Yuan et al., Mar. 2, 2011, PLoS ONE, 6(3):e17540). Cells were sorted and characterized at passage 3 and were expanded. Cells were then frozen at passage 5. Cells were maintained in NSC media (DMEM/F12, N2 (1×), B27(1×) (Invitrogen), and Pen/Strep (1×) (Life Technologies) with 20 ng/ml bFGF (BD Bioscience/Corning)). On day 1, cells were plated in 96 well plates that have been previously coated with poly-ornithin and laminin, 60,000 cells/well in 100 μl of media. On day 2, spent media was removed, and 180 μl of fresh media was added to the cells. Later that same day (day 2), cells were treated with 20 μl of NSC media containing test compounds (7 point CRC). On day 3, spent media was removed and 140 μl of RLT/bME was added to the cells. RNA was extracted using the QiaCube (Qiagen®, Germantown, Md., USA) using the total RNA extraction+DNAse protocol. RNA was then reverse-transcribed to cDNA using iScript (Bio-Rad, Hercules, Calif., USA). cDNA was then used for real-time PCR analysis using iTaq Sybergreen (BioRad). Expression of Atoh1, Hes5, Hes1, Myosin7a genes was evaluated using CFX96 or CFX384 (Bio-Rad). HPRT1 was used as a reference gene. Analysis was done using Microsoft® Excel® and CBIS (ChemInnovation Software, Inc., San Diego, Calif., USA). […]

HES5 = test: Human neural stem cell assay, Hes5 gene expression (real-time PCR); assay type: cell-based; settings: human neural stem cells, 7 point CRC, read-out: hNSC HES5 IC50
Description: as §1

[1] = Guinea pig PK after transtympanic delivery (perilymph and cochlea, LC/MS/MS); assay type: in vivo; settings: for concentration at 1 day / concentration at 7 day / concentration at 14 day / concentration at 28 day / concentration at 42 day / concentration at 56 day: male, Hartley, other: transtympanic, 30 μL, 30 μL transtympanic; for concentration at 1 day: Day 1, LLOQ = 0.08 μM; for concentration at 7 day: Day 7, LLOQ = 0.08 μM; for concentration at 14 day: Day 14, LLOQ = 0.08 μM; for concentration at 28 day: Day 28, LLOQ = 0.08 μM; for concentration at 42 day: Day 42, LLOQ = 0.08 μM; for concentration at 56 day: Day 56, LLOQ = 0.08 μM
Description: (§2) Male Hartley guinea pigs (300-350 g) were anesthetized with ketamine and xylazine. Thirty microliters of an aqueous pharmaceutical composition of the instant embodiments was delivered transtympanically to deposit the drug to the round window membrane. Delivery was unilateral. The animals were placed in a warm chamber in a lateral recumbent position keeping the dosed ear side up until they recover from anesthesia.
At various timepoints after administration, the animals were euthanized by CO2 inhalation. Blood and CSF were collected and stored at −80° C. The animals were decapitated, the temporal bones removed and the bulla opened to expose the otic capsule. Ipsilateral and contralateral perilymph were collected from the apex using a microcapillary tube. The ipsilateral cochlea was removed from the otic capsule and stored at −80° C. All tissues collected were analyzed using LC/MS/MS for test compound concentration as follows. Analytical standards were prepared by spiking known concentrations of the test compound stock solutions into matrices such as plasma or artificial CSF. Fixed amounts of tissues collected and spiked standards were precipitated with acetonitrile containing buspirone as an internal standard. The precipitated samples were centrifuged at 4000 g for 10 minutes at 4° C. The supernatants were analyzed using LC-MS/MS. The LC-MS/MS system was set up using the AB Sciex 4000 Qtrap (AB Sciex, Framingham, Mass.) equipped with Agilent 1200 series HPLC and CTC PAL Autosampler (Agilent Technologies, Santa Clara, Calif.).
Liquid compositions described herein were evaluated using the method described in Part E of the Biological Function section provided above. The liquid compositions prepared as described in Example 5(a)-5(d) were each drawn into a 1 mL syringe. Using the filled 1 mL syringe, the liquid composition was back-filled at 5° C. into a 100 μL Hamilton syringe adapted with 28 gauge needle. The Hamilton syringe was then allowed to warm to room temperature.
as §2, with “the above liquid” for “an aqueous pharmaceutical”, “were” for “of the instant embodiments was”, “The delivery” for “Delivery”, “recovered” for “recover”
At various timepoints after administration, the animals were euthanized by CO2 inhalation. Blood and cerebrospinal fluid were collected and stored at −80° C. The animals were decapitated, the temporal bones removed and the bulla were opened to expose the otic capsule. Ipsilateral and contralateral perilymph were collected from the apex using a microcapillary tube. The ipsilateral cochlea was removed from the otic capsule and was stored at −80° C. All tissues collected were analyzed using LC/MS/MS as described in Part E of the Biological Function section above.
The concentrations of Compound I and Compound II were measured using LC/MS/MS in both the perilymph fluid and the cochlea tissue after a transtympanic injection of an instant formulation of either the crystalline form or the amorphous form at various time points. […] Concentration of the instant compounds in the perilymph and/or cochlea tissue was above the human NSC EC50 for Atoh1, an indicator that the subject compounds may be efficacious in hair cell regeneration and hearing restoration in human. […] Table 3 below lists the results for the studies using aqueous formulations of crystalline Compound I while Table 4 below lists those for aqueous formulations of crystalline Compound II. The results for aqueous formulations of crystalline Compound I are also graphically shown in FIG. 5A and FIG. 5B while the results for aqueous formulations of crystalline Compound II are graphically shown in FIG. 6A and FIG. 6B.

mice = test: Auditory brainstem response (ABR) hearing threshold; assay type: in vivo; settings: formulations of Examples 3(c) and 3(d) (2% w/v crystalline, poloxamer 407)
Description: Surgery was performed on naïve mice or mice with noise or pharmacologically-damaged ears. The animals were anesthetized with isoflurane and an 8 mm retroauricular incision was made to the lower caudal edge of the pinna. The skin was retracted and the fatty tissue was blunt dissected away from where the facial nerve and muscle come together. The muscle was retracted to reveal an area in the tympanic bulla where the bone was thin. A 30 g needle was used to drill a hole in the exposed thin portion of the otic bulla. A Hamilton syringe equipped with a 32 g blunt needle was inserted into the opening of the otic bulla. The drug formulation was delivered by injection and the needle removed. Wound closure was made with tissue glue.
Naïve mice or mice at various times after either noise or pharmacological deafening were anesthetized with ketamine/xylazine/acepromazine and the auditory brainstem response was determined in both ears using a Tucker Davis (Alachua, Fla.) RZ6 apparatus. The mice were exposed to clicks or pure tones of 4, 8, 16, 24 and 32 kHz at 90-10 dB in 10 dB descending steps and the hearing threshold was determined.

[2] = cochlea, Amorphous form (Example 5(d)), read-out: Cochlea Average concentration
[3] = cochlea, Crystalline form (Example 5(c)), read-out: Cochlea Average concentration
[4] = perilymph, Amorphous form (Example 5(d)), read-out: perilymph Average concentration
[5] = perilymph, Crystalline form (Example 5(c)), read-out: Perilymph Average concentration

## CN1C(=O)[C@@H](NC(=O)[C@](C)(F)C(=O)NCC(F)(F)C(F)(F)F)c2ccccc2-c2ccccc21 [Compound II, (2R)-2-fluoro-2-methyl-N—[(S)-5-methyl-6-oxo-6,7-dihydro-5H-dibenzo[b,d]azepin-7-yl]-N′-(2,2,3,3,3-pentafluoropropyl)malonamide]
Atoh1
  EC50: 0.023 µM
HES5
  IC50: 0.023 µM
[1]; dosed as the amorphous form, transtympanic
  concentration in the perilymph and the cochlea compared with the human NSC EC50 for Atoh1: above the human NSC EC50 for Atoh1 at 1 day and 7 days
[1]; dosed as the crystalline form, transtympanic
  concentration in the perilymph and the cochlea compared with the human NSC EC50 for Atoh1: above the human NSC EC50 Atoh1 from day 1 to day 42
[1]; [2]
  concentration at 1 day: 829 µM
  concentration at 7 day: 18.1 µM
  concentration at 14 day: 0 µM
  concentration at 28 day: 0 µM
[1]; [3]
  concentration at 1 day: 5280 µM
  concentration at 7 day: 46.1 µM
  concentration at 14 day: 222 µM
  concentration at 28 day: 7.6 µM
  concentration at 42 day: 0.6 µM
  concentration at 56 day: 0 µM
[1]; [4]
  concentration at 1 day: 159 µM
  concentration at 7 day: 178 µM
  concentration at 14 day: 0 µM
  concentration at 28 day: 0 µM
[1]; [5]
  concentration at 1 day: 502 µM
  concentration at 7 day: 26 µM
  concentration at 14 day: 26 µM
  concentration at 28 day: 2.2 µM
  concentration at 42 day: 0.3 µM
  concentration at 56 day: 0 µM
[1]; transtympanic, formulations of Example 5(a)-5(d)
  exposure to the inner ear, crystalline formulation versus respective amorphous formulation: longer exposure
mice; 16 kHz
  ABR Threshold Improvement: 8 dB
mice; 24 kHz
  ABR Threshold Improvement: 11 dB
mice; 32 kHz
  ABR Threshold Improvement: 7 dB
